Test results published in patent US20260263651A1, “WOUND DRESSING” (UNIVERSITY OF SUNDERLAND, priority 2023, published 2026).
“Also recorded” adds a separate entry of the source.

Tests used:
Format in all cases: cell-based
Escherichia coli = test: Microbiological evaluation of overnight bacteria suspensions, modified alginate wound dressing with absorbed substrate on agar; settings: for Observable colour change: EC overnight culture, 24 h incubation at 37° C.
Description: (§1) ACTIVHEAL® simply A (10×20 cm) non-adhesive foam samples were provided by Advanced Medical Solutions Ltd. The wound dressings were cut into ~5-10×5-10 mm squares, using an ethanol washed pair of scissors. A maximum of 0.20 g of the material was added into 10 mL DI water, and the pH was adjusted to ~3 by the addition of 0.1 M aq. HCl solution. The solution was stirred for 10 mins at room temperature, followed by the addition of 0.33 g EDC •HCl (1.7 mmol) and the pH was maintained at ~3 by the addition of 0.1 M aq. HCl solution. The solution was stirred at room temperature for 10 mins followed by the addition of 0.88 g compound 8 which was dissolved in DMSO or DMF. The mixture was stirred at room temperature for 48 h. The wound dressings were filtered and were washed with ethanol. To ensure the full removal of any non-coupled amide (8), the foam samples were resuspended in ethanol, stirred for 10 mins and filtered, and this process was repeated until the amide (8) was not detectable from the filtrate (this could be maintained by TLC or HPLC evaluation). The samples were dried in a vacuum oven for 3-4 h.
(§2) The aqueous solution of 3a or 3b was prepared by the following: the desired amount of the enzymatic substrate (3.0 mg for 300 mg/L, 6.0 mg for 600 mg/L, 9.0 mg for 900 mg/L, 15.0 mg for 1500 mg/L, and 30.0 mg for 3000 mg/L) was weighed out on a 4 decimal place balance within ±0.3 mg error limit into a 10 mL volumetric flask and was adjusted to 10.0 mL with DI water. The solutions were absorbed into the foam samples and dried in a vacuum oven at 40° C. overnight.
(§3) To model fluid exudate from a chronic wound, the wound dressing made according to ‘Modification of ActivHeal® Alginate’, above, was placed into an agar plate and the test pathogen was smeared over the surface of the agar.
(§4) The enzymatic substrates were tested in 4 different concentrations (300, 600, 900 and 3000 mg/L) using DI water as a solvent, and the solutions were absorbed into the wound dressing samples, which were dried overnight under vacuum at 40° C.
(§5) Two Gram negative strains (Escherichia coli—EC and Pseudomonas aeruginosa—PSA) and a Gram positive bacteria (Staphylococcus aureus—SA) were evaluated against the dimethyl (3a) and the diethyl (3b) substituted substrate. The overnight cultures were directly smeared from LB broth onto Columbia blood agar without measuring the OD. The wound dressings with the enzymatic substrate absorbed were placed onto the agar and were incubated overnight (see FIGS. 2-7).

Pseudomonas aeruginosa [1] = test: as above; settings: PSA overnight culture, 24 h incubation at 37° C.
Description: as §1, §2, §3, §4, §5

Staphylococcus aureus = test: as above; settings: SA overnight culture, 24 h incubation at 37° C.
Description: as §1, §2, §3, §4, §5

Pseudomonas aeruginosa [2] = test: Microbiological evaluation of standardised bacterial suspensions, modified wound dressing with absorbed substrate on agar; design: key to Observable colour change: − indicates no colour change; +− indicates relatively discernible blue colour change; + indicates a moderately strong blue colour change; ++ indicates a strong blue colour change
Description: as §1, §2
Bacterial strains were routinely cultured from working stocks in Tryptic Soy Broth (TSB) and incubated at 37° C. overnight with shaking at 150 RPM. Overnight cultures were centrifuged at 3000×g for 5 minutes, the supernatant discarded, and the pellet resuspended in 10 mL phosphate buffered saline (PBS). Bacterial inoculums were standardised by optical density at 600 nm on an Amersham Biosciences Ultrospec 10 spectrophotometer (Amersham Biosciences, Amersham, UK) to contain between 1 and 3×10^8 CFU/mL.
However, rapid evaluation of lower bacteria concentrations is essential for the desired clinical application. […] The solutions were absorbed into the wound dressing samples, which were dried overnight under vacuum at 40° C.
Two Gram negative strains (Escherichia coli—EC and Pseudomonas aeruginosa—PSA) and a Gram-positive bacterium (Staphylococcus aureus—SA) were evaluated. The bacteria were incubated overnight, centrifuged at 3000×g for 5 mins, the supernatant was discarded, and the residue pellets were resuspended in 10 mL PBS. The inoculums were standardised by measuring the optical density at 600 nm to assure a 1-3×10^8 CFU/mL. The standardised solutions were further diluted to prepare 1-3×10^6 and 1-3×10^4 CFU/mL suspension. 1×10^6 CFU would be an ideal breakpoint for a positive result, as this concentration coincides well with a level of colonisation that would likely go on to produce an infection.
100 μL bacterial suspensions were smeared over agar plates. Wound dressing samples were added to the top of the agar and were rolled over a few times (to ensure a full coverage and to ease the visibility of the colour change). The plates were incubated at 37° C., and the results were recorded after 24 h, after 48 h, after 72 h. The results are shown in Table 3-5; − indicates no colour change, +− indicates relatively discernible blue colour change, + indicates a moderately strong blue colour change and ++ indicates a strong blue colour change.

[3] = substrate 300 mg/L, hydrochloride

CCN(CC)c1ccc(NC(=O)[C@@H](N)CC(C)C)cc1.Cl [3b, (2S)-2-amino-N-[4-(diethylamino)phenyl]-4-methyl-pentanamide hydrochloride]
Observable colour change (Escherichia coli; [3]): blue colour changes; also recorded: Light blue | Observable colour change (Escherichia coli; substrate 600 mg/L): Light blue | Observable colour change (Escherichia coli; substrate 900 mg/L): Dark blue | Observable colour change (Escherichia coli; substrate 3000 mg/L): Dark blue | colour change strength compared with the dimethyl analogue (Escherichia coli; overnight cultures (EC, PSA, SA), overall comparison of Table 2): stronger colour changes than the dimethyl analogue (3a) | Observable colour change (Pseudomonas aeruginosa [1]; [3]): blue colour changes; also recorded: Light blue | Observable colour change (Pseudomonas aeruginosa [1]; substrate 600 mg/L): Light blue | Observable colour change (Pseudomonas aeruginosa [1]; substrate 900 mg/L): Blue | Observable colour change (Pseudomonas aeruginosa [1]; substrate 3000 mg/L): Dark blue | Observable colour change (Staphylococcus aureus; substrate 300 mg/L): None | Observable colour change (Staphylococcus aureus; substrate 600 mg/L): None | Observable colour change (Staphylococcus aureus; substrate 900 mg/L): None | Observable colour change (Staphylococcus aureus; substrate 3000 mg/L, hydrochloride): produced the colour change and Blue | Observable colour change (Pseudomonas aeruginosa [2]; PSA 10^4, substrate 300 mg/L, 24 h at 37° C.): − | Observable colour change (Pseudomonas aeruginosa [2]; PSA 10^4, substrate 300 mg/L, 48 h at 37° C.): − | Observable colour change (Pseudomonas aeruginosa [2]; PSA 10^4, substrate 300 mg/L, 72 h at 37° C.): + | Observable colour change (Pseudomonas aeruginosa [2]; PSA 10^4, substrate 900 mg/L, 24 h at 37° C.): − | Observable colour change (Pseudomonas aeruginosa [2]; PSA 10^4, substrate 900 mg/L, 48 h at 37° C.): − | Observable colour change (Pseudomonas aeruginosa [2]; PSA 10^4, substrate 900 mg/L, 72 h at 37° C.): ++ | Observable colour change (Pseudomonas aeruginosa [2]; PSA 10^4, substrate 1500 mg/L, 24 h at 37° C.): − | Observable colour change (Pseudomonas aeruginosa [2]; PSA 10^4, substrate 1500 mg/L, 48 h at 37° C.): − | Observable colour change (Pseudomonas aeruginosa [2]; PSA 10^4, substrate 1500 mg/L, 72 h at 37° C.): ++ | Observable colour change (Pseudomonas aeruginosa [2]; PSA 10^6, substrate 300 mg/L, 24 h at 37° C.): − | Observable colour change (Pseudomonas aeruginosa [2]; PSA 10^6, substrate 300 mg/L, 48 h at 37° C.): − | Observable colour change (Pseudomonas aeruginosa [2]; PSA 10^6, substrate 300 mg/L, 72 h at 37° C.): + | Observable colour change (Pseudomonas aeruginosa [2]; PSA 10^6, substrate 900 mg/L, 24 h at 37° C.): − | Observable colour change (Pseudomonas aeruginosa [2]; PSA 10^6, substrate 900 mg/L, 48 h at 37° C.): +− | Observable colour change (Pseudomonas aeruginosa [2]; PSA 10^6, substrate 900 mg/L, 72 h at 37° C.): ++ | Observable colour change (Pseudomonas aeruginosa [2]; PSA 10^6, substrate 1500 mg/L, 24 h at 37° C.): − | Observable colour change (Pseudomonas aeruginosa [2]; PSA 10^6, substrate 1500 mg/L, 48 h at 37° C.): − | Observable colour change (Pseudomonas aeruginosa [2]; PSA 10^6, substrate 1500 mg/L, 72 h at 37° C.): + | colour change (Pseudomonas aeruginosa [2]; PSA 10^8, 10^6 or 10^4 CFU, after 72 h, every tested substrate concentration): moderate or strong blue colour changes | Observable colour change (Pseudomonas aeruginosa [2]; PSA 10^8, substrate 300 mg/L, 24 h at 37° C.): − | Observable colour change (Pseudomonas aeruginosa [2]; PSA 10^8, substrate 300 mg/L, 48 h at 37° C.): + | Observable colour change (Pseudomonas aeruginosa [2]; PSA 10^8, substrate 300 mg/L, 72 h at 37° C.): + | Observable colour change (Pseudomonas aeruginosa [2]; PSA 10^8, substrate 900 mg/L, 24 h at 37° C.): − | Observable colour change (Pseudomonas aeruginosa [2]; PSA 10^8, substrate 900 mg/L, 48 h at 37° C.): ++ | Observable colour change (Pseudomonas aeruginosa [2]; PSA 10^8, substrate 900 mg/L, 72 h at 37° C.): ++ | Observable colour change (Pseudomonas aeruginosa [2]; PSA 10^8, substrate 1500 mg/L, 24 h at 37° C.): − | Observable colour change (Pseudomonas aeruginosa [2]; PSA 10^8, substrate 1500 mg/L, 48 h at 37° C.): ++ | Observable colour change (Pseudomonas aeruginosa [2]; PSA 10^8, substrate 1500 mg/L, 72 h at 37° C.): ++ | colour change (Pseudomonas aeruginosa [2]; PSA 10^8 CFU, 10^6 CFU, and 104 CFU, substrate 900 mg/L, printed in the 48 h paragraph): strong blue colour changes | colour change (Pseudomonas aeruginosa [2]; PSA 10^8 CFU, after 48 h incubation, substrate 900 or 1500 mg/L): strong blue colour changes
